According to patent US9820951B2, “Pulmonary disease treatment and diagnosis based on Arhgef1” (NATIONAL JEWISH HEALTH, A NON-PROFIT ORGANIZATION, priority 2011, dated 2017):

Tests used:
Mmp9 [1] = assay: Mmp9 expression by qPCR in mouse peritoneal macrophages cultured on fibronectin; assay type: cell-based; settings: wild type and Arhgef1-deficient macrophages on fibronectin; 40 nM S1P, 10 μM LPA, 6 μM PTXA2; 24 h
Description: (§1) FIG. 4. TP signaling is required for MMP9 production in vitro and in vivo. A) Macrophage Mmp9 expression after culture on fibronectin for 24 hrs in media/vehicle (−), 40 nM S1P, 10 μM LPA, 10 nM U-46619 (TP agonist) or 6 μM PTXA2 (TP antagonist). Data represent normalized mean±SE. B) Arhgef1−/− mice (n=16) were exposed to aerosolized PBS (n=16), 220 μM PTXA2 (n=6) or 190 μM U-46619 (n=10) for 20 minutes and BAL harvested 1 day later and MMP activity measured.
FIG. 12. Thromboxane receptor signaling is necessary for fibronectin-induced MMP9 production by macrophages and is attenuated by Arhgef1. A, representative gelatin zymograms of conditioned media from macrophages cultured on plastic (ctl) or FN and treated with 1.56 or 6.25 μM of the thromboxane receptor antagonist PTA2. Wild type (+/+) and Arhgef1^−/− (−/−) samples from separate zymograms are shown. B, quantitation of MMP9 activity as determined by densitometric analysis of zymograms in A. The results are representative of two independent experiments. C, representative zymograms from conditioned media from macrophages cultured on plastic or fibronectin and treated with 28 μM of the thromboxane receptor antagonist L-655,240. D, quantitation of MMP9 activity as determined by densitometric analysis of zymograms in C. The results are compiled from two independent experiments with n=4 for both wild type (open bars) and Arhgef1^−/− (black bars) samples. The data represent the means±S.E. *, p<0.05 Student's two-tailed t test compared with conditioned media from cells cultured on plastic. #, p<0.05 Student's two-tailed t test comparing conditioned media from wild type cells to Arhgef1^−/− cells cultured under identical conditions. $, p<0.05 Student's two-tailed t test compared with conditioned media from cells cultured on fibronectin. E, MMP2 activity was quantitated in conditioned media as previously described for MMP9. The results are compiled from four independent experiments with n=10 for wild type (open bars) and Arhgef1^−/− (black bars) samples cultured on either plastic or fibronectin. For cells treated with 20 mM aspirin, n=6 for wild type (open bars) and Arhgef1^−/− (black bars) samples. For cells treated with 28 μM L-655,240, n=4 for wild type (open bars) and Arhgef1^−/− (black bars) samples. The data represent the means±S.E. F, MMP9 activity was quantitated as previously described and normalized to a percentage of fibronectin response for each genotype. The cells were either untreated or treated with 0.5% Me2SO or 28 μM L-655,240. The results are compiled from two independent experiments with n=3 for all conditions and genotypes. The data represent the means±S.E. *, p<0.05 Student's two-tailed t test compared with conditioned media from cells cultured on fibronectin. G, relative Mmp9 expression was measured by qPCR in macrophages cultured on fibronectin in the presence of the thromboxane receptor agonist (U-46619, 10 nM), S1P (40 nM), or LPA (10 μM). […] Wild type (open bars, n=12, 6, 3, and 3 for fibronectin, +U-46619, +S1P, and +LPA, respectively) and Arhgef1^−/− (black bars, n=14, 6, 3, and 2, respectively) from at least two independent experiments. The data represent the means±S.E. *, p<0.05 Student's two-tailed t test compared with conditioned media from cells cultured on fibronectin, #, p<0.05 Student's two-tailed t test comparing conditioned media from wild type cells to Arhgef1^−/− cells cultured under identical conditions. […]

Mmp9 [2] = assay: MMP9 activity in BAL of Arhgef1−/− mice after aerosol exposure; assay type: in vivo, mouse; settings: inhalation of aerosol 20 min (220 μM PTXA2, 190 μM U-46619), BAL 24 hours later
Description: as §1

MMP2 = MMP2 activity by gelatin zymography in conditioned media of mouse peritoneal macrophages cultured on fibronectin; assay type: cell-based; settings: wild type and Arhgef1−/− macrophages; 20 mM aspirin or 28 μM L-655,240
Description: FIG. 12. Thromboxane receptor signaling is necessary for fibronectin-induced MMP9 production by macrophages and is attenuated by Arhgef1. A, representative gelatin zymograms of conditioned media from macrophages cultured on plastic (ctl) or FN and treated with 1.56 or 6.25 μM of the thromboxane receptor antagonist PTA2. Wild type (+/+) and Arhgef1^−/− (−/−) samples from separate zymograms are shown. B, quantitation of MMP9 activity as determined by densitometric analysis of zymograms in A. The results are representative of two independent experiments. C, representative zymograms from conditioned media from macrophages cultured on plastic or fibronectin and treated with 28 μM of the thromboxane receptor antagonist L-655,240. D, quantitation of MMP9 activity as determined by densitometric analysis of zymograms in C. The results are compiled from two independent experiments with n=4 for both wild type (open bars) and Arhgef1^−/− (black bars) samples. […] E, MMP2 activity was quantitated in conditioned media as previously described for MMP9. […] The data represent the means±S.E. F, MMP9 activity was quantitated as previously described and normalized to a percentage of fibronectin response for each genotype. […] G, relative Mmp9 expression was measured by qPCR in macrophages cultured on fibronectin in the presence of the thromboxane receptor agonist (U-46619, 10 nM), S1P (40 nM), or LPA (10 μM). […]

SMILES	Mmp9 expression (Mmp9 [1])	MMP9 activity in BAL (Mmp9 [2])	MMP2 activity (MMP2)
CCCCC[C@@H](O)/C=C/[C@H]1C[C@H]2C[C@@H]([C@@H]1C/C=C\CCCC(=O)O)C2(C)C (relative stereo) [PTXA2, (18-(1alpha,2beta(Z),3alpha(1E,3S*),5alpha))-7-(3-(3-Hydroxy-1-octenyl)-6,6-dimethylbicyclo(3.1.1)hept-2-yl)-5-heptenoic acid]	ablated Mmp9 expression	considerably diminished MMP9 activity	
CC(=O)Oc1ccccc1C(=O)O [aspirin]			not affected
